Laboratory results published in patent publication US20250011288A1 (BRISTOL-MYERS SQUIBB COMPANY, priority 2021, published 2025).

Target: T1, human RXFP1 (Homo sapiens, UniProt Q9HBX9)
T1 construct: expressed in transfected cells
T1 sequence (Q9HBX9 1-757): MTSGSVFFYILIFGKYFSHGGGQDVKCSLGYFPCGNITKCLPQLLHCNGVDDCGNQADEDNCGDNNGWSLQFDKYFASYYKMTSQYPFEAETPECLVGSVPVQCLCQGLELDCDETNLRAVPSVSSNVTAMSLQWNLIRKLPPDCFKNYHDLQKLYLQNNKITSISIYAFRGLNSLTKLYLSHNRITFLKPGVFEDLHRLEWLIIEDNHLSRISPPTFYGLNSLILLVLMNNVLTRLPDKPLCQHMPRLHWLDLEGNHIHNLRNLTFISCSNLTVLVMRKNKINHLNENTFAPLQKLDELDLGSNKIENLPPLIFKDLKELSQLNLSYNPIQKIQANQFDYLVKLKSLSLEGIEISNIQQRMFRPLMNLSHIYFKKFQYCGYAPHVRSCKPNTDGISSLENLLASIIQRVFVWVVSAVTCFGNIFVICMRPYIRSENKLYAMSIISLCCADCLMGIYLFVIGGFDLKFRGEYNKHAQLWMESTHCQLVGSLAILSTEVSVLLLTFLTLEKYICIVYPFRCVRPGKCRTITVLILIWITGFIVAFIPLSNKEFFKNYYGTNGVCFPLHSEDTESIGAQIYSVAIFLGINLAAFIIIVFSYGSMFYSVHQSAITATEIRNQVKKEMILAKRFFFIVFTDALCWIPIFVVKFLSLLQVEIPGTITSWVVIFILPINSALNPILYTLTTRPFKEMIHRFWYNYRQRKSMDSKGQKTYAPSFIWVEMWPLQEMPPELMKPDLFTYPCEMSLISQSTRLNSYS
Test: human RXFP1 (hRXFP1) HEK293 cAMP assay (HTRF)
Assay type: cell-based
Settings: HEK293 cells stably expressing human RXFP1, 30 min at room temperature
In short: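 HEK293 cells stably expressing human RXFP1 (1500 cells/well) in HBSS/20 mM HEPES/0.05% BSA/0.5 mM IBMX, treated with compound (0.010 nM–50 µM final, 2% DMSO) for 30 min at room temperature. Intracellular cAMP read by HTRF; potency from 4-parameter logistic fit of cAMP versus concentration.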

Row | SMILES | EC50
1 | COc1ncc(C2=NOC3CC(C(C)O)CC23)cc1C(=O)N[C@H]1[C@@H](C(=O)Nc2ccc(F)c(C(F)(F)F)c2)[C@H]2CC[C@@H]1/C2=C\CCC(F)(F)F (stereo partly drawn) [Example 124, N-((1R,2R,3S,4R,Z)-3-((4-fluoro-3-(trifluoromethyl)phenyl)carbamoyl)-7-(4,4,4-trifluorobutylidene)bicyclo[2.2.1]heptan-2-yl)-5-(5-(1-hydroxyethyl)-3a,5,6,6a-tetrahydro-4H-cyclopenta[d]isoxazol-3-yl)-2-methoxynicotinamide] | 3.6 nM
2 | COc1ncc(C2=NOC3OCCCC23)cc1C(=O)N[C@H]1[C@@H](C(=O)Nc2ccc(F)c(C(F)(F)F)c2)[C@H]2CC[C@@H]1/C2=C\C1CCCC1 (stereo partly drawn) [Example 125, N-((1R,2R, 3S,4R,Z)-7-(cyclopentyl-methylene)-3-((4-fluoro-3-(trifluoromethyl)phenyl)carbamoyl)bicyclo[2.2.1]heptan-2-yl)-2-methoxy-5-(3a,5,6,7a-tetrahydro-4H-pyrano[3,2-d]isoxazol-3-yl)nicotinamide] | 3.6 nM
3 | COc1ncc(C2=NOC3CC(O)CC23)cc1C(=O)N[C@H]1[C@@H](C(=O)Nc2ccc(F)c(C(F)(F)F)c2)[C@H]2CC[C@@H]1/C2=C\C1CCCC1 (stereo partly drawn) [Example 126, N-((1R,2R,3S,4R,Z)-7-(cyclopentylmethylene)-3-((4-fluoro-3-(trifluoromethyl)phenyl)carbamoyl)bicyclo[2.2.1]heptan-2-yl)-5-(5-hydroxy-3a,5,6,6a-tetrahydro-4H-cyclopenta[d]isoxazol-3-yl)-2-methoxynicotinamide] | 4.2 nM
4 | COc1ncc(C2=NOC3CC(C(O)C(F)(F)F)CC23)cc1C(=O)N[C@H]1[C@@H](C(=O)Nc2ccc(F)c(C(F)(F)F)c2)[C@H]2CC[C@@H]1/C2=C\C(C)C (stereo partly drawn) [Example 127, N-((1R,2R,3S,4R,Z)-3-((4-fluoro-3-(trifluoromethyl)phenyl)carbamoyl)-7-(2-methylpropylidene)bicyclo[2.2.1]heptan-2-yl)-2-methoxy-5-(5-(2,2,2-trifluoro-1-hydroxyethyl)-3a,5,6,6a-tetrahydro-4H-cyclopenta [d]isoxazol-3-yl)nicotinamide] | 4.3 nM
5 | COc1ncc(C2=NOC3CC(C(C)O)CC23)cc1C(=O)N[C@H]1[C@@H](C(=O)Nc2ccc(F)c(C(F)(F)F)c2)[C@H]2CC[C@@H]1/C2=C\C1CCCC1 (stereo partly drawn) [Example 128, N-((1R,2R,3S,4R,Z)-7-(cyclopentylmethylene)-3-((4-fluoro-3-(trifluoromethyl)phenyl)carbamoyl)bicyclo[2.2.1]heptan-2-yl)-5-(5-(1-hydroxyethyl)-3a,5,6,6a-tetrahydro-4H-cyclopenta[d]isoxazol-3-yl)-2-methoxynicotinamide] | 4.9 nM
6 | COc1ncc(C2=NOC3CC(C(O)C(F)(F)F)CC23)cc1C(=O)N[C@H]1[C@@H](C(=O)Nc2ccc(F)c(C(F)(F)F)c2)[C@H]2CC[C@@H]1/C2=C\CC(O)C(F)(F)F (stereo partly drawn) [Example 129, N-((1R,2R,3S,4R,Z)-3-((4-fluoro-3-(trifluoromethyl)phenyl)carbamoyl)-7-(4,4,4-trifluoro-3-hydroxybutylidene)bicyclo[2.2.1]heptan-2-yl)-2-methoxy-5-(5-(2,2,2-trifluoro-1-hydroxyethyl)-3a,5,6,6a-tetrahydro-4H-cyclopenta[d]isoxazol-3-yl)nicotinamide] | 5 nM
7 | COc1ncc(C2=NOC3CC(C(O)C(F)(F)F)CC23)cc1C(=O)N[C@H]1[C@@H](C(=O)Nc2ccc(F)c(C(F)(F)F)c2)[C@H]2CC[C@@H]1/C2=C\C1CC1 (stereo partly drawn) [Example 135, N-((1R,2R,3S,4R,Z)-7-(cyclopropyl-methylene)-3-((4-fluoro-3-(trifluoromethyl)phenyl)carbamoyl)bicyclo[2.2.1]heptan-2-yl)-2-methoxy-5-(5-(2,2,2-trifluoro-1-hydroxyethyl)-3a,5,6,6a-tetrahydro-4H-cyclopenta[d]isoxazol-3-yl)nicotinamide] | 4 nM
8 | COc1ncc(C2=NOC3CC(O)CC23)cc1C(=O)N[C@H]1[C@@H](C(=O)Nc2ccc(F)c(C(F)(F)F)c2)[C@H]2CC[C@@H]1/C2=C\C1CC1 (stereo partly drawn) [Example 138, N-((1R,2R,3S,4R,Z)-7-(cyclopropyl-methylene)-3-((4-fluoro-3-(trifluoromethyl)phenyl)carbamoyl)bicyclo[2.2.1]heptan-2-yl)-5-(5-hydroxy-3a,5,6,6a-tetrahydro-4H-cyclopenta[d]isoxazol-3-yl)-2-methoxynicotinamide] | 4.8 nM

These reach a lower EC50. Values come first.

Row | EC50 | SMILES
9 | 1.2 nM | COc1ncc(C2=NOC3CC(C(O)C(F)(F)F)CC23)cc1C(=O)N[C@H]1[C@@H](C(=O)Nc2ccc(F)c(C(F)(F)F)c2)[C@H]2CC[C@@H]1/C2=C\C1CC1 (stereo partly drawn) [Example 130, N-((1R,2R,3S,4R,Z)-7-(cyclopropylmethylene)-3-((4-fluoro-3-(trifluoromethyl)phenyl)carbamoyl)bicyclo[2.2.1]heptan-2-yl)-2-methoxy-5-(5-(2,2,2-trifluoro-1-hydroxyethyl)-3a,5,6,6a-tetrahydro-4H-cyclopenta[d]isoxazol-3-yl)nicotinamide]
10 | 1.6 nM | COc1ncc(C2=NOC3CC(C(O)C(F)(F)F)CC23)cc1C(=O)N[C@H]1[C@@H](C(=O)Nc2ccc(F)c(C(F)(F)F)c2)[C@H]2CC[C@@H]1/C2=C\C1CC1 (stereo partly drawn) [Example 131, N-((1R,2R,3S,4R,Z)-7-(cyclopropyl-methylene)-3-((4-fluoro-3-(trifluoromethyl)phenyl)carbamoyl)bicyclo[2.2.1]heptan-2-yl)-2-methoxy-5-(5-(2,2,2-trifluoro-1-hydroxyethyl)-3a,5,6,6a-tetrahydro-4H-cyclopenta[d]isoxazol-3-yl)nicotinamide]
11 | 1.8 nM | COc1ncc(C2=NO[C@@H]3C[C@H](CO)CN23)cc1C(=O)N[C@@H]1C2CCC(/C2=C/C2CC2)[C@@H]1C(=O)Nc1ccc(F)c(C(F)(F)F)c1 (stereo partly drawn) [Example 132, N-((1R,2R,3S,4R,Z)-7-(cyclopropyl-methylene)-3-((4-fluoro-3-(trifluoromethyl)phenyl)carbamoyl)bicyclo[2.2.1]heptan-2-yl)-5-((6S,7aR)-6-(hydroxymethyl)-5,6,7,7a-tetrahydropyrrolo [1,2-d][1,2,4]oxadiazo 1-3-yl)-2-methoxynicotinamide]
12 | 2.1 nM | COc1ncc(C2=NO[C@@H]3C[C@H](CO)CN23)cc1C(=O)N[C@@H]1C2CCC(/C2=C/C2CCCC2)[C@@H]1C(=O)Nc1ccc(F)c(C(F)(F)F)c1 (stereo partly drawn) [Example 133, N-((1R,2R,3S,4R,Z)-7-(cyclopentyl-methylene)-3-((4-fluoro-3-(trifluoromethyl)phenyl)carbamoyl)bicyclo[2.2.1]heptan-2-yl)-5-((6S,7aR)-6-(hydroxymethyl)-5,6,7,7a-tetrahydropyrrolo [1,2-d][1,2,4]oxadiazo 1-3-yl)-2-methoxynicotinamide]
13 | 3.2 nM | COc1ncc(C2=NO[C@H]3C[C@H](C#N)CN23)cc1C(=O)N[C@@H]1C2CCC(/C2=C/C2CC2)[C@@H]1C(=O)Nc1ccc(F)c(C(F)(F)F)c1 (stereo partly drawn) [Example 134, 5-((6S,7aS)-6-cyano-5,6,7,7a-tetrahydropyrrolo [1,2-d][1,2,4]oxadiazo 1-3-yl)-N-((1R,2R,3S,4R,Z)-7-(cyclopropyl-methylene)-3-((4-fluoro-3-(trifluoromethyl)phenyl)carbamoyl)bicyclo[2.2.1]heptan-2-yl)-2-methoxynicotinamide]
14 | 2.5 nM | COc1ncc(C2=NOC3COCC23)cc1C(=O)N[C@H]1[C@@H](C(=O)Nc2ccc(F)c(C(F)(F)F)c2)[C@H]2CC[C@@H]1/C2=C\C1CCCC1 (stereo partly drawn) [Example 136, N-((1R,2R,3S,4R,Z)-7-(cyclopentyl-methylene)-3-((4-fluoro-3-(trifluoromethyl)phenyl)carbamoyl)bicyclo[2.2.1]heptan-2-yl)-2-methoxy-5-(3a,4,6,6a-tetrahydrofuro[3,4-d]isoxazol-3-yl)nicotinamide]
15 | 3 nM | COc1ncc(C2=NOC3COCC23)cc1C(=O)N[C@H]1[C@@H](C(=O)N[C@H](C)C2(C)CC2)[C@H]2CC[C@@H]1/C2=C\C1CC1 (stereo partly drawn) [Example 137, N-((1R,2R,3S,4R,Z)-7-(cyclopropyl-methylene)-3-(((R)-1-(1-methylcyclopropyl)ethyl)carbamoyl)bicyclo[2.2.1]heptan-2-yl)-2-methoxy-5-(3a,4,6,6a-tetrahydrofuro[3,4-d]isoxazol-3-yl)nicotinamide]
16 | 2.9 nM | COc1ncc(C2=NOC3CC(CO)CC23)cc1C(=O)N[C@H]1[C@@H](C(=O)Nc2ccc(F)c(C(F)(F)F)c2)[C@H]2CC[C@@H]1/C2=C\CCC(F)(F)F (stereo partly drawn) [Example 139, N-((1R,2R,3S,4R,Z)-3-((4-fluoro-3-(trifluoromethyl)phenyl)carbamoyl)-7-(4,4,4-trifluorobutylidene)bicyclo[2.2.1]heptan-2-yl)-5-(5-(hydroxymethyl)-3a,5,6,6a-tetrahydro-4H-cyclopenta[d]isoxazol-3-yl)-2-methoxynicotinamide]
